The source of these data is ChEMBL document CHEMBL1287743, “Comparative inhibitory activity of 3'- and 5'-functionalized nucleosides on ribonuclease A” (Bioorg Med Chem, 2010).

Experiment [1] deals with T1, Ribonuclease pancreatic (Bos taurus) (UniProt P61823).
T1 sequence (whole entry): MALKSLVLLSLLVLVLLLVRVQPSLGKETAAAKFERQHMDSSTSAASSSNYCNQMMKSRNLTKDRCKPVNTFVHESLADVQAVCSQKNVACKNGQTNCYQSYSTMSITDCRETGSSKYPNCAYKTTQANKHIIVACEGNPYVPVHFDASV
The experiment is described as follows: Inhibition of bovine pancreatic RNase A ribonucleolytic activity of RNase A at 2.5 mM after 2 hrs by precipitation assay.

The target of experiment [2] is T2, Ribonuclease pancreatic (Bos taurus, UniProt P61823).
T2 sequence (P61823 whole entry): T1 sequence (whole entry)
The experiment is described as follows: Competitive inhibition of bovine pancreatic RNase A ribonucleolytic activity of by Dixon plot analysis.

Experiment [3] has as its target T1, Ribonuclease pancreatic (Bos taurus). The experiment is described as follows: Inhibition of bovine pancreatic RNase A assessed as degradation of tRNA at 1.9 mM after 6 hrs using ethidium bromide staining by agarose gel-based assay.

SMILES strings stand for the structures. Active and inactive are the calls of the source. No cut-off for these calls is given here.

For orientation: inhibition means the relative decrease from the control value, in per cent. As a reminder, the Ki is a dissociation constant, usually derived from enzyme kinetics or from competition with a known ligand. A high value points to weaker binding.

Turning to `Cc1cn([C@H]2C[C@H](NC(=O)C(N)CC(=O)O)[C@@H](CO)O2)c(=O)[nH]c1=O` (some centres undefined), in experiment [1], the inhibition came to 47.6%. The Ki in experiment [2] was determined as 37 µM. The inhibition entry in experiment [3] was “Active”.

`Cc1cn([C@H]2C[C@H](O)[C@@H](C(=O)O)O2)c(=O)[nH]c1=O` [5'-CARBOXY THYMIDINE] displayed an inhibition in experiment [1] of 23.5%. Further, in experiment [2], the affinity corresponds to a Ki of 193 µM. For the same compound, the inhibition entry in experiment [3] was “Active”.

In the case of `Nc1ncnc2c1ncn2[C@@H]1O[C@H](C(=O)O)[C@@H](O)[C@H]1O` [5'-CARBOXY ADENOSINE], the inhibition in experiment [1] is 32.2%. The same compound displayed an inhibition constant (Ki) in experiment [2] of 67 µM. The inhibition entry in experiment [3] is “Active”.
